One assay has as its system HeLa. Description: ATP-based viability loss in HeLa cells – cell-based, CellTiter-Glo luminescence, cherry-pick samples, cytotoxicity control for MITF activator project, dose response (AID 540259). In kind it is functional. Particulars: Homo sapiens. (In general: Cellular ATP, detected with luciferase, serves as a proxy for viable cell number.)
For the next assay, the system named is Escherichia coli. Description: microbe, parasite or virus in culture.
For a further assay, the target named is T1, Cytochrome P450 1A2 (Homo sapiens, UniProt P05177).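 Also: PubChem cytochrome P450 panel assay, CYP1A2 panel member.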
T1 sequence (P05177 whole entry): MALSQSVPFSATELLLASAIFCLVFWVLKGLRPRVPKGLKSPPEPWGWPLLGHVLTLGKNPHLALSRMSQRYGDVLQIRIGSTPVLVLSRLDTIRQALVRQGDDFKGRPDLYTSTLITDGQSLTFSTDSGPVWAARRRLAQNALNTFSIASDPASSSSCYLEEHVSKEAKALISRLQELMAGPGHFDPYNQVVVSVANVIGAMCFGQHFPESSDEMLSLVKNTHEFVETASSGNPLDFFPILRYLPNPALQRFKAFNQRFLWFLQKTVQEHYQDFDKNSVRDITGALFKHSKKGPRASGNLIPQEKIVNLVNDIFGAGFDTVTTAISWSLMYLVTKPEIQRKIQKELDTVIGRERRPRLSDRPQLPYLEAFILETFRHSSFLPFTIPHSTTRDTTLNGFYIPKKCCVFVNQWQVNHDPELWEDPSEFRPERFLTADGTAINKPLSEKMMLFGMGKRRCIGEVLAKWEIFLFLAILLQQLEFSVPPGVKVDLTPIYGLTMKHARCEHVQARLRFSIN

In the next assay the target is T2, Cysteine protease ATG4B (Homo sapiens, UniProt Q9Y4P1).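 Also: Fluorescence-based dose-response confirmation assay measuring inhibition of ATG4B activity.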
T2 sequence (Q9Y4P1 whole entry): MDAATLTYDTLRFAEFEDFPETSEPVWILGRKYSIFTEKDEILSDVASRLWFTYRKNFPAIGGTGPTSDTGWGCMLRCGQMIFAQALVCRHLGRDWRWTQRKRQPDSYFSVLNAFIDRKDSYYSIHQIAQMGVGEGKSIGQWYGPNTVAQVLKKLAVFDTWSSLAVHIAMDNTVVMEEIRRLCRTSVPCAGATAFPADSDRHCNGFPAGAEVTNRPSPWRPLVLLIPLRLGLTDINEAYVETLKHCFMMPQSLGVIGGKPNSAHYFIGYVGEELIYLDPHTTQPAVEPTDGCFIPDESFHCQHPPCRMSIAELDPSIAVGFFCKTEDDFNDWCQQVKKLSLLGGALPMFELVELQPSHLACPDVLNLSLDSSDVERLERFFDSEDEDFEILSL
The class given is functional.

The target in the next assay is Phospholipase A2 (Homo sapiens, UniProt P04054). In kind it is functional.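 Also: confirmatory dose-response counterscreen on phospholipase A2, testing hits that came from an ultra-high-throughput screen for ATG4B inhibitors.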
For assay [1], the target named is T3, Cytochrome P450 3A4 (Homo sapiens, UniProt P08684). Particulars: Potency.
Assay [2] concerns the target Voltage-gated inwardly rectifying potassium channel KCNH2 (Homo sapiens, UniProt Q12809). Particulars: Potency.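 Also: confirmatory quantitative high-throughput screen measuring inhibition of hERG channel activity.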
Assay [3] addresses T4, Short transient receptor potential channel 4 (Mus musculus, UniProt Q9QUQ5).
T4 sequence (Q9QUQ5 whole entry): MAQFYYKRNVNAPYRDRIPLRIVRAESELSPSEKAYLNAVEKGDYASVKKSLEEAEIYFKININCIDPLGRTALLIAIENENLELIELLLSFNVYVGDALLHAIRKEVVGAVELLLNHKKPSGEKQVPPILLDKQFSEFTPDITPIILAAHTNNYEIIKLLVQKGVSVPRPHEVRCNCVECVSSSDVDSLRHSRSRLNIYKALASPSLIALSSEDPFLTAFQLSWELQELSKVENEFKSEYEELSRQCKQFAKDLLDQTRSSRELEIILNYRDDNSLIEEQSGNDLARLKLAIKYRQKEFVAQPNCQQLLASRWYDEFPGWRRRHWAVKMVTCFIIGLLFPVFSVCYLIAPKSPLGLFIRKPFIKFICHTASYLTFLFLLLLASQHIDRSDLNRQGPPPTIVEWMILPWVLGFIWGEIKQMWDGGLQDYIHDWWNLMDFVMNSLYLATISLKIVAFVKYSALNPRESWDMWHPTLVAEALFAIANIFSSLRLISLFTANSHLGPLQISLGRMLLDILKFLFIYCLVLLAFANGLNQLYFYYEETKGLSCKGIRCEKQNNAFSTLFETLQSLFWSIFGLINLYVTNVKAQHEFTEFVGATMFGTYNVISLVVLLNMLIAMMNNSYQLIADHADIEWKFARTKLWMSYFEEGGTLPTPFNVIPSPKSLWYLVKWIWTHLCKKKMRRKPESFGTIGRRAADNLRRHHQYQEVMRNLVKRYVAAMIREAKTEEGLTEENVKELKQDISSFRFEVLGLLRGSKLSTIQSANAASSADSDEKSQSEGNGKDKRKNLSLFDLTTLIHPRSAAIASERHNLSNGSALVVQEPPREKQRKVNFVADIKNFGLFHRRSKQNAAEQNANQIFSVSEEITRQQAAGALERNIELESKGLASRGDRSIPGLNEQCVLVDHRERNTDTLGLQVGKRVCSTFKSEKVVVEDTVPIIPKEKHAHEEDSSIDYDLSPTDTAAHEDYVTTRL
Put plainly: calcium entry via TRPC4 opening agents – cell-based, HEK293 TRPC4/mu-opioid, Fluo-4 calcium, dose response (AID 434937). The class given is functional.

The target in assay [4] is Delta-type opioid receptor (Homo sapiens, UniProt P41143). Put plainly: Counterscreen for agonists of heterodimerization of the mu 1 (OPRM1) and delta 1 (OPRD1) opioid receptors: Luminescence-based cell-based high throughput dose response assay to identify agonists of OPRD1 homodimerization. [Related pubchem assays (depositor defined):AID504326, AID504355, AID504692, AID504904, AID504905]. The class given is functional. A general note: The purpose of a counterscreen is to sort out artefacts and off-target activity.

A further assay concerns the target Mu-type opioid receptor (Homo sapiens, UniProt P35372). Put plainly: Counterscreen for agonists of heterodimerization of the mu 1 (OPRM1) and delta 1 (OPRD1) opioid receptors: Luminescence-based cell-based high throughput dose response assay to identify agonists of OPRM1 homodimerization. The class given is functional.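 Also: U2OS cells expressing OPRM1 and beta-arrestin as split beta-galactosidase partners.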
In assay [5] the target is 5-hydroxytryptamine receptor 5A (Homo sapiens, UniProt P47898). Put plainly: Counterscreen for agonists of OPRM1-OPRD1 heterodimerization: luminescence-based cell-based high throughput dose response assay to identify agonists of 5-hydroxytryptamine (serotonin) 5A receptor (HTR5A). [Related pubchem assays (depositor defined):AID504326, AID504355, AID504692, AID504904, AID504905]. The class given is functional.

The nature of assay [6]: cells. The class given is functional, cell-based.
The nature of assay [7]: cells. In kind it is functional, cell-based. The source holds these as a separate data set.
In assay [8] the target is Dual specificity tyrosine-phosphorylation-regulated kinase 1A (Rattus norvegicus, UniProt Q63470). In kind it is biochemical, Homo sapiens.
Assay [9] in a line: HEK-293T viability loss after treatment – luminescence, T-cell screen hits, cytotoxicity control for TCR NF-kB inhibitor project, dose response (AID 489026).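 Also: cells exposed to compound about 14 hours before the viability readout.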 In kind it is functional, cell-based.
A further assay addresses Cytochrome P450 2D6 (Homo sapiens, UniProt P10635).
In assay [10] the target is T3, Cytochrome P450 3A4.
Another assay addresses Cytochrome P450 2C9 (Homo sapiens, UniProt P11712).
The target in a further assay is Large T antigen (Simian virus 40, UniProt P03070). In kind it is functional, Betapolyomavirus macacae.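 Also: Confirmatory-stage PubChem screen for compounds that inhibit SV40 T antigen.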
Assay [11] in a line: Trypanosoma cruzi growth suppression in host cells – NIH3T3 host cells, beta-gal luminescence, confirmation (AID 2044).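 Also: intracellular parasites grown in NIH/3T3 mouse fibroblasts as host cells; luminescent beta-galactosidase reporter signal from transgenic T. cruzi replicating inside host cells; inhibitors lower the luminescence signal.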 The class given is functional, cell-based.
Assay [12] can be described thus: NIH3T3 cell viability loss – ATP luminescence, mouse fibroblasts, counter-screen, dose response (AID 2010).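 Also: cells exposed to compound for about 90 hours before reading.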 In kind it is functional, cell-based.

The source made the active and inactive calls. Where only a bound is given, the exact number is not on record here.

Sequence of Voltage-gated inwardly rectifying potassium channel KCNH2 (Q12809 whole entry): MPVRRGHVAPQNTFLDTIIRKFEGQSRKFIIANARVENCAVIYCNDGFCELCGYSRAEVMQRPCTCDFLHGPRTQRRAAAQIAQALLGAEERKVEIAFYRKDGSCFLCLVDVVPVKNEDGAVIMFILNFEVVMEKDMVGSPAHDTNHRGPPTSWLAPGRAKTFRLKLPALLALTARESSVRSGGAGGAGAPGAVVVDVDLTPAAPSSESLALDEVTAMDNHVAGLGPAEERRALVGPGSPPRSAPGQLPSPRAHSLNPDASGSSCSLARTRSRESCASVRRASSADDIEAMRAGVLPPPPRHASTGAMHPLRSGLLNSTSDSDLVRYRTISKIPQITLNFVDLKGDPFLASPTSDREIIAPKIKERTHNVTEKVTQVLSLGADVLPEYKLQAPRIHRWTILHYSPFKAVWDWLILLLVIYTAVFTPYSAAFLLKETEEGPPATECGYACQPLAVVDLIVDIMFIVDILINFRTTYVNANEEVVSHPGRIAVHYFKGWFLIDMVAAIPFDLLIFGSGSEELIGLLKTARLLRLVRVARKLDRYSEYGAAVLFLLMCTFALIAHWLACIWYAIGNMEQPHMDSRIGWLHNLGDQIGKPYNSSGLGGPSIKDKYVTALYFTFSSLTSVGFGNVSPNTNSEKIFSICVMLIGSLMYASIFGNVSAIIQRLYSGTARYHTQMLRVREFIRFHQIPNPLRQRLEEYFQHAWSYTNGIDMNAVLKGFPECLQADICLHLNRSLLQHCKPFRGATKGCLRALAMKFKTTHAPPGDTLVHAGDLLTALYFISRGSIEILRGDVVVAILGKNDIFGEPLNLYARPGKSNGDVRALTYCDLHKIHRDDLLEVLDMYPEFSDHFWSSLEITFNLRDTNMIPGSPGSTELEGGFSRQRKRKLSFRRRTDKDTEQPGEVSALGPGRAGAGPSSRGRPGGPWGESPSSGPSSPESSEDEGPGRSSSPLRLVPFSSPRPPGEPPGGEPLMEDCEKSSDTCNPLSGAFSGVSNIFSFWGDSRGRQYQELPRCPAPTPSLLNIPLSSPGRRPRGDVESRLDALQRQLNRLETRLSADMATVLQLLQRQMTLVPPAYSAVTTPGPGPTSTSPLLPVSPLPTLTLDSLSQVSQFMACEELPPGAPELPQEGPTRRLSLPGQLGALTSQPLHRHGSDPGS
Sequence of 5-hydroxytryptamine receptor 5A (P47898 whole entry): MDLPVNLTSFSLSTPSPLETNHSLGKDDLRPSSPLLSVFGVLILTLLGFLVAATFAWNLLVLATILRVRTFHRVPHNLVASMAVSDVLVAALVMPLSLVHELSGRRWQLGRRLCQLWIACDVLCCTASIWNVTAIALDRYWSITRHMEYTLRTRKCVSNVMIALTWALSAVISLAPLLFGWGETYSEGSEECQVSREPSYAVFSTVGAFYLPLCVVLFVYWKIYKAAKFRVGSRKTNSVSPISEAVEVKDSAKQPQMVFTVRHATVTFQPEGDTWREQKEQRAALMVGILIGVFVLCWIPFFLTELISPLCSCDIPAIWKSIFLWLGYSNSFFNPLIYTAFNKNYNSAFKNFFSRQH
Sequence of Mu-type opioid receptor (P35372 whole entry): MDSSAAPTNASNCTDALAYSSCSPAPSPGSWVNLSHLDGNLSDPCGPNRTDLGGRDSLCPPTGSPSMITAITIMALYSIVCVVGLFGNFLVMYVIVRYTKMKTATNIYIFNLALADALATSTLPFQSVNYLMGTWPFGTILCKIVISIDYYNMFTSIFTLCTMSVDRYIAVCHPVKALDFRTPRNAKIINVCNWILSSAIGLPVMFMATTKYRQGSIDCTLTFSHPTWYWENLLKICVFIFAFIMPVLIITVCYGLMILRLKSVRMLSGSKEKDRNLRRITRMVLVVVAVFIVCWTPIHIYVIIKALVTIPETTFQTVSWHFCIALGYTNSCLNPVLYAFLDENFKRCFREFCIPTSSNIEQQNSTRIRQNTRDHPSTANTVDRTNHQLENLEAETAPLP
Sequence of Delta-type opioid receptor (P41143 whole entry): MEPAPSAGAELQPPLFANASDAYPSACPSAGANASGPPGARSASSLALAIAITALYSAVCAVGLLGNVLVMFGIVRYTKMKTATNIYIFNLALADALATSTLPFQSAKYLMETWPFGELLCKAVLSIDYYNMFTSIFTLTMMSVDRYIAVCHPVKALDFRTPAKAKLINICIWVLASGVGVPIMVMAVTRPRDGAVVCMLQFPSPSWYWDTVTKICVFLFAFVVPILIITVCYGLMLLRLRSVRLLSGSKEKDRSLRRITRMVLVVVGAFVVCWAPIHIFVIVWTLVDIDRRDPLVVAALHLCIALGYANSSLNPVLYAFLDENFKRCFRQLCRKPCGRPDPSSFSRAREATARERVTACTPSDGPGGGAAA
Sequence of Phospholipase A2 (P04054 whole entry): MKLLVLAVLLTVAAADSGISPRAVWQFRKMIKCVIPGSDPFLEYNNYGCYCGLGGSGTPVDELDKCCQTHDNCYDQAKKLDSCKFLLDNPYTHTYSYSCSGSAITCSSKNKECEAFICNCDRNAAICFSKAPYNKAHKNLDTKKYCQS
T3 sequence (P08684 whole entry): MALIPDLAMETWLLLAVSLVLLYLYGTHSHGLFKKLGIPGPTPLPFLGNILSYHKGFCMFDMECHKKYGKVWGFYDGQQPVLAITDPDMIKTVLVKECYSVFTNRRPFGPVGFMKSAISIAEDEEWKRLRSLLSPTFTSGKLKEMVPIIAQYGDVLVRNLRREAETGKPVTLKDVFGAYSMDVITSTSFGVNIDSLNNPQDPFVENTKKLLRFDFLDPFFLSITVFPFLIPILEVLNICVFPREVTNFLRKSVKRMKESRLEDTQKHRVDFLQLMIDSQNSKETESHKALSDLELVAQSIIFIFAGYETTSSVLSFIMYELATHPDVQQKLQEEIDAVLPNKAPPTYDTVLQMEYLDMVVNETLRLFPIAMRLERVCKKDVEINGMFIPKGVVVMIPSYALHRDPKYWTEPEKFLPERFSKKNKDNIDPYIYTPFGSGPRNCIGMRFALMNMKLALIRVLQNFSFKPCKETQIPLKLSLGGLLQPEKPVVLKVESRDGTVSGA
Sequence of Cytochrome P450 2C9 (P11712 whole entry): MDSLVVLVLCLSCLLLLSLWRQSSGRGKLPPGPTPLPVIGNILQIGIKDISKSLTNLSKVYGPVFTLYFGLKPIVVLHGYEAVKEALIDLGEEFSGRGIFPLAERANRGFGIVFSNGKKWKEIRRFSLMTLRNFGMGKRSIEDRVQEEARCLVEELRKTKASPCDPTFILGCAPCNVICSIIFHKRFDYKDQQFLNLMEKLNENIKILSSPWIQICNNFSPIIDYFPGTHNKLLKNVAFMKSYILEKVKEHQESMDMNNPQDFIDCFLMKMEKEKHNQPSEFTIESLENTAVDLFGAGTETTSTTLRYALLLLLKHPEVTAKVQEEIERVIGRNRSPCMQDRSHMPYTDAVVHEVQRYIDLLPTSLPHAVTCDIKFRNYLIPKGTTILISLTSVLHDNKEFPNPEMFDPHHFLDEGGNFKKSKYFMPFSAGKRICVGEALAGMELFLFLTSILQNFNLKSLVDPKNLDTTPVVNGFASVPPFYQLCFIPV
Sequence of Large T antigen (P03070 whole entry): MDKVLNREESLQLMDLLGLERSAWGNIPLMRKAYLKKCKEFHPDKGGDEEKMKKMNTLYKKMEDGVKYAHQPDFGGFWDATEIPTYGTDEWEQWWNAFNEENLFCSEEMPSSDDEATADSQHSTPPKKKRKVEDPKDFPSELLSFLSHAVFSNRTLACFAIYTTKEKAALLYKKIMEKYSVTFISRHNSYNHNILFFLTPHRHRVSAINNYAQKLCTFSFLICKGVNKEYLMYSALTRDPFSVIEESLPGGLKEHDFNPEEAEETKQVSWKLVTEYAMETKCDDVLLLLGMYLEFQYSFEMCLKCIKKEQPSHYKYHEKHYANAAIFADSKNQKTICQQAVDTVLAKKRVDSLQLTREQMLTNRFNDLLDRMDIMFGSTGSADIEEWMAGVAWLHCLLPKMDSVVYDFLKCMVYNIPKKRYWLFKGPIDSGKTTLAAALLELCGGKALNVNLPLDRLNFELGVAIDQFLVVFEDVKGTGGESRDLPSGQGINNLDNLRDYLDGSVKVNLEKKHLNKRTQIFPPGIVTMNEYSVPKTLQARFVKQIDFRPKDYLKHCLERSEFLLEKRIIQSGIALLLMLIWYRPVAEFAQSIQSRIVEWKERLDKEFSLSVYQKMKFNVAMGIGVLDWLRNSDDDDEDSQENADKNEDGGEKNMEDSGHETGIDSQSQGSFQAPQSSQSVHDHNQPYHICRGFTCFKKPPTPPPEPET
Sequence of Cytochrome P450 2D6 (P10635 whole entry): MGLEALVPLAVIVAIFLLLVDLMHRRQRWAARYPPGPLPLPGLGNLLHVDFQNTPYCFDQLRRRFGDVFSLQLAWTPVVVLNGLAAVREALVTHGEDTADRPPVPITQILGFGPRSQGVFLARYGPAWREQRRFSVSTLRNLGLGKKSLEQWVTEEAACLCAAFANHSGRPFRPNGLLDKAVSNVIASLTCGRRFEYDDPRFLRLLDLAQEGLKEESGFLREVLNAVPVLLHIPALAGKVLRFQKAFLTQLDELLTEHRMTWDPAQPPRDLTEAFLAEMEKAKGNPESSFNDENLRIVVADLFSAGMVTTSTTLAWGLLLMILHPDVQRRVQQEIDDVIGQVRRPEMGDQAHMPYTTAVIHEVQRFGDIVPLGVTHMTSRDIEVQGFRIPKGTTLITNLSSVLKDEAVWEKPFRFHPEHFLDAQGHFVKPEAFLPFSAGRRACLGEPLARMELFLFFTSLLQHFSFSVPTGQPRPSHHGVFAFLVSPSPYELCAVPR

For orientation: AC50 means the concentration giving half of the maximal activity seen. Consider `CCn1c(/C=C/c2c[nH]c3ccccc23)nc2ccccc2c1=O`, for which, in the assay with HeLa, the half-maximal activity concentration (AC50) is 50.7 µM (active). Same read-out and setting: the value for `c1ccc(-c2ccc(-c3cnc4n3CCCCC4)cc2)cc1` was 37.5 µM (active).

In the case of `CCOc1ccc(Nc2nc(O)c3c(n2)CCCC3)cc1`, in the assay on Escherichia coli, the concentration at half-maximal activity (AC50) is 31.7 µM (active). For `O=C(Nc1ccc2c(c1)CCC2)c1c(F)cccc1Cl`, the AC50 in the assay on HeLa was > 350 µM (inactive). For the compound `COc1ccccc1C(=O)Nc1ccc2c(C)cc(=O)oc2c1`, the AC50 with HeLa was 51.7 µM (active). In the case of `Cc1ccc(OCCNC(=O)c2cc(-n3cnnc3)ccc2Cl)cc1C`, the figures for the AC50 on Cytochrome P450 1A2 and in the assay with Escherichia coli were 28.2 µM (inconclusive) and 51 µM (active), respectively.

As to `COC(=O)c1ccc(CNC(=O)C2CCC(=O)N(Cc3ccccn3)C2)cc1` (centres undefined), the concentration at half-maximal activity (AC50) with Escherichia coli is 131 µM (active). The term IC50 denotes the concentration at which inhibition is half-maximal. In the case of `Cc1cccc(N=C(S)Nc2ccc(Oc3ccccc3)cc2)n1`, the IC50 at Cysteine protease ATG4B is 22.5 µM (inactive); on Phospholipase A2, 16.8 µM (active). `CCCCOCCOP(=O)(OCCOCCCC)OCCOCCCC`: the AC50 at Cytochrome P450 3A4 [1] is 25.1 µM (inconclusive); in assay [2] it was 50.1 µM (inconclusive). As usually defined, the EC50 is the concentration that produces a half-maximal response. On to `O=C(c1sc2ccccc2c1Cl)N(Cc1ccco1)C1CCS(=O)(=O)C1` (centres undefined), for which the concentration for a half-maximal effect (EC50) is 2.11 µM (active) in [3], 29.2 µM (inactive) in [4], > 92.5 µM (inactive) on Mu-type opioid receptor and > 92.5 µM (inactive) in assay [5]. On to `COc1ccc(C(CNc2ncnc3sc(C)c(C)c23)N(C)C)cc1` (centres undefined), for which the half-maximal effective concentration (EC50) in [3] was 0.473 µM (active); in [4] it was 70.5 µM (inactive); at Mu-type opioid receptor, > 92.4 µM (inactive); in assay [5], > 92.4 µM (inactive). In the case of `Cc1cccc2c1N(CCOc1ccc(C(C)(C)C)cc1)C(=O)C2=O`, the results for the concentration for half-maximal inhibition (IC50) at Cysteine protease ATG4B and at Phospholipase A2 were 5.76 µM (active) and 4.75 µM (active), respectively.

As to `O=C(Nc1ccc(O)cc1)c1c(O)nc2c(c1O)CCCC2`, in the assay on HeLa, the AC50 is 76 µM (active). Consider `COC(=O)C1CCc2c(ccc3c2CCCC3)C1=O` (centres undefined), for which the AC50 in the assay on HeLa is > 350 µM (inactive). On to `O=C(COC(=O)/C=C/c1ccc(F)cc1)Nc1nnc(-c2ccccc2)o1`, for which the AC50 in the assay on Escherichia coli is 23.2 µM (active). The same measure, in the same setting: to `COc1cc2c3c(c1OC)Oc1ccc(cc1)C[C@H]1c4c(cc(OC)c(OC)c4Oc4ccc(cc4)C[C@@H]3N(C)CC2)CCN1C` belongs 25.2 µM (active); to `Cc1noc(C)c1COC(=O)c1cccc(S(=O)(=O)N2CCOCC2)c1`, 44.7 µM (active). Regarding `CC(C)(C)c1ccc(OCC2CO2)cc1` (centres undefined), the AC50 in [2] was 12.6 µM (inconclusive). In the case of `COc1ccc2[nH]c(C(=O)N/N=C/c3ccccc3OC)cc2c1`, the concentration for a half-maximal effect (EC50) in “cells [6]” and in “cells [7]” was > 350 µM (not active) in each case. Moreover, the half-maximal activity concentration (AC50) in assay [8] was 2.17 µM (active).

On to `O=C(N[C@@H](Cc1ccccc1)C(=O)CCl)OCc1ccccc1`, for which the IC50 in [9] is > 80 µM (inactive). Moreover, the concentration at half-maximal activity (AC50) is 39.8 µM (inconclusive) on Cytochrome P450 2D6, 1.26 µM (inconclusive) on Cytochrome P450 3A4 [10], 12.6 µM (inconclusive) at Cytochrome P450 2C9 and 25.1 µM (inconclusive) in assay [2]. In the case of `Oc1ccc(/C=N/n2c(S)nnc2COc2ccccc2)c(O)c1`, in assay [8], the AC50 is 0.796 µM (active). As to `Cc1ccc(/N=c2\oc3cc(O)ccc3cc2C(N)=O)cc1`, the IC50 on Large T antigen is 33.8 µM (active). Also, the EC50 is 3.69 µM (active) in [11] and > 60 µM (not active) in assay [12]. Moreover, the AC50 in assay [8] is 0.074 µM (active). Regarding `CCCN(CCC)[C@@H]1CCc2cccc(O)c2C1`, the AC50 in assay [2] was 15.8 µM (inconclusive). On the same count and under the same terms, the value for `O=C(O)C1C2CCC(O2)C1C(=O)O` (centres undefined) was 1.26 µM (inconclusive); that for `ClC(Cl)(Cl)C(Cl)(Cl)Cl` [HEXACHLOROETHANE] was 39.8 µM (inconclusive).

Source of the values: ChEMBL document CHEMBL1201862, “PubChem BioAssay data set” (2004).
